# Assay results as given in patent US9518049B2, “Salt forms of (S)-quinuclidin-3-yl (2-(2-(4-fluorophenyl)thiazol-4-yl)propan-2-yl)carbamate” (Genzyme Corporation, priority 2013, dated 2016).
# Tested on: K14 mouse model of type 2 Gaucher disease
# Assay: K14 mouse model of type 2 Gaucher disease
# Assay type: in vivo
# Description: As noted above, Gaucher Disease results from a deficiency of the lysosomal enzyme glucocerebrosidase (GC). In the most common phenotype of Gaucher disease (type 1), pathology is limited to the reticuloendothelial and skeletal systems and there are no neuropathic symptoms. See Barranger, Glucosylceramide lipidosis: Gaucher disease. In: Scriver C R B A, Sly W S, Valle D, editor. The Metabolic Basis of Inherited Disease. New York: McGraw-Hill. pp. 3635-3668 (2001). In neuropathic Gaucher disease (nGD), subdivided into type 2 and type 3 Gaucher disease, the deficiency of glucocerebrosidase (GC) causes glucosylceramide (GluCer; GL-1) and glucosylsphingosine (GluSph) to accumulate in the brain, leading to neurologic impairment. Type 2 Gaucher disease is characterized by early onset, rapid progression, extensive pathology in the viscera and central nervous system, and death usually by 2 years of age. Type 3 Gaucher disease, also known as subacute nGD, is an intermediate phenotype with varying age of onset and different degrees of severity and rates of progression. Goker-Alpan et al., The Journal of Pediatrics 143: 273-276 (2003). A recent development has produced the K14 lnl/lnl mouse model of type 2 Gaucher disease (hereinafter, the “K14 mouse”); this mouse model closely recapitulates the human disease showing ataxia, seizures, spasticity and a reduced median lifespan of only 14 days. Enquist et al., PNAS 104: 17483-17488 (2007).
# As in patients with nGD, several mouse models of the disease have increased levels of GluCer and GluSph in the brain due to the deficiency in GC activity. Liu et al., PNAS 95: 2503-2508 (1998) and Nilsson, J. Neurochem 39: 709-718 (1982). The “K14” mice display a neuropathic phenotype that shares many pathologic features with type 2 Gaucher disease, such as neurodegeneration, astrogliosis, microglial proliferation, and increased levels of GluCer and GluSph in specific brain regions. Enquist et al. (2007).
# Clinical management of patients affected by nGD poses a challenge for treating physicians both because of the severity of type 2 disease and the inability of the current therapies to cross the blood brain barrier (BBB). Current treatment of non-nGD relies on the intravenous delivery of recombinant human glucocerebrosidase (Imiglucerase; Cerezyme™) to replace the missing enzyme or the administration of glucosylceramide synthase inhibitors to attenuate substrate (GL-1) production. […] Current small molecule glucosylceramide synthase inhibitors in the clinic are not likely to address the neuropathic phenotypes of nGD.
smiles,measurement,setting,value
"CC(C)(NC(=O)OC1CN2CCC1CC2)c1cccc(-c2ccc(F)cc2)c1 (stereo not shown) [Gz161, Quinuclidin-3-yl (2-(4′-fluoro-[1,1′-biphenyl]-3-yl)propan-2-yl)carbamate]",brain neuropathology,,reduced
same,lifespan,,extended
same,brain GluCer,brain,reduce
same,brain GluSph,brain,reduce
